# Where a name gives a salt, the structure may show the parent alone.
# Test system: KRas G12D-mediated phosphorylation of ERK
# Test: Inhibition of KRas G12D-mediated phosphorylation of ERK in AGS cells
# Format: cell-based
# Details: Homo sapiens; AGS cells expressing G12D, 3 hours, phospho-ERK normalized to GAPDH
# Procedure, shortened: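 In-cell Western: p-ERK Thr202/Tyr204 signal over GAPDH, as % of DMSO control, with IC50 from a 4-parameter curve. AGS cells seeded 40,000/well for 12-14 h, exposed to compound 3 h at 0.5% DMSO final, then formaldehyde-fixed and methanol-permeabilized.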
row,Compound,IC50 [µM]
1,"COCCO[C@@H]1C[C@@H](COc2nc(N3C[C@H]4CC[C@@H](C3)N4)c3cnc(-c4cccc5cccc(Cl)c45)c(F)c3n2)N(C)C1 [Example 202, 4-((1R,5S)-3,8-diazabicyclo[3.2.1]octan-3-yl)-7-(8-chloronaphthalen-1-yl)-8-fluoro-2-(((2S,4R)-4-(2-methoxyethoxy)-1-methylpyrrolidin-2-yl)methoxy)pyrido[4,3-d]pyrimidine]",10.2
2,"C#CCc1ccc(O)cc1-c1ncc2c(N3C[C@H]4CC[C@@H](C3)N4)nc(OCC34CCCN3CCC4)nc2c1F [Example 279, 3-(4-((1R,5S)-3,8-diazabicyclo[3.2.1]octan-3-yl)-8-fluoro-2-((hexahydro-1H-pyrrolizin-7a-yl)methoxy)pyrido[4,3-d]pyrimidin-7-yl)-4-(prop-2-yn-1-yl)phenol]",7.4
3,"Cc1cc(-c2ncc3c(N4C[C@H]5CC[C@@H](C4)N5)nc(OCC45CCCN4CCC5)nc3c2F)c2c(Cl)cccc2c1 [Example 175, 4-((1R,5S)-3,8-diazabicyclo[3.2.1]octan-3-yl)-7-(8-chloro-3-methylnaphthalen-1-yl)-8-fluoro-2-((hexahydro-1H-pyrrolizin-7a-yl)methoxy)pyrido[4,3-d]pyrimidine]",> 5.56
4,"O[C@H]1CN2CCC[C@]2(COc2nc(N3CC4CCC(C3)N4)c3cnc(-c4cccc5cccc(Cl)c45)c(F)c3n2)C1 (stereo in doubt) [Example 224, 7a-(((4-((1R,5S)-3,8-diazabicyclo[3.2.1]octan-3-yl)-7-(8-chloronaphthalen-1-yl)-8-fluoropyrido[4,3-d]pyrimidin-2-yl)oxy)methyl)hexahydro-1H-pyrrolizin-2-ol bis-hydrochloride]",6.38
5,CO[C@H]1CN[C@H](COc2nc(N3C[C@H]4CC[C@@H](C3)N4)c3cnc(-c4cccc5cccc(Cl)c45)c(F)c3n2)C1 [Example 351],> 16.7
6,"CC1CCc2cccc(-c3ncc4c(N5CC6CCC(C5)N6)nc(OC[C@@H]5CCCN5C)nc4c3F)c21 (stereo partly drawn) [Example 174, 4-((1R,5S)-3,8-diazabicyclo[3.2.1]octan-3-yl)-8-fluoro-7-(3-methyl-2,3-dihydro-1H-inden-4-yl)-2-(((S)-1-methylpyrrolidin-2-yl)methoxy)pyrido[4,3-d]pyrimidine]",12.8
7,"OC[C@@H]1CCN1c1nc(N2C[C@H]3CC[C@@H](C2)N3)c2cnc(-c3cc(O)cc4ccccc34)c(F)c2n1 [Example 121, 4-(4-((1R,5S)-3,8-diazabicyclo[3.2.1]octan-3-yl)-8-fluoro-2-((S)-2-(hydroxymethyl)azetidin-1-yl)pyrido[4,3-d]pyrimidin-7-yl)naphthalen-2-ol 2,2,2-trifluoroacetate]",4.08
8,"Oc1cc(-c2ncc3c(N4C[C@H]5CC[C@@H](C4)N5)nc(OC[C@@]45CCCN4C[C@H](F)C5)nc3c2F)c2c(F)cccc2c1 [Example 282, 4-(4-((1R,5S)-3,8-diazabicyclo[3.2.1]octan-3-yl)-8-fluoro-2-(((2R,7aS)-2-fluorohexahydro-1H-pyrrolizin-7a-yl)methoxy)pyrido[4,3-d]pyrimidin-7-yl)-5-fluoronaphthalen-2-ol]",0.0049
9,"Cc1nccn1CCOc1nc(N2CC3CCC(C2)N3)c2cnc(-c3cc(O)cc4ccccc34)c(F)c2n1 [Example 84, 4-(4-((1R,5S)-3,8-diazabicyclo[3.2.1]octan-3-yl)-8-fluoro-2-(2-(2-methyl-1H-imidazol-1-yl)ethoxy)pyrido[4,3-d]pyrimidin-7-yl)naphthalen-2-ol]",5.72
10,"CC(C)c1c(Cl)cccc1-c1ncc2c(N3C[C@H]4CC[C@@H](C3)N4)nc(OCC34CCCN3CCC4)nc2c1F [Example 298, 4-((1R,5S)-3,8-diazabicyclo[3.2.1]octan-3-yl)-7-(3-chloro-2-isopropylphenyl)-8-fluoro-2-((hexahydro-1H-pyrrolizin-7a-yl)methoxy)pyrido[4,3-d]pyrimidine]",1.23
11,"Cc1nccn1CCOc1nc(N2C[C@H]3C[C@@H](O)[C@@H](C2)N3)c2cnc(-c3cccc4cccc(Cl)c34)c(F)c2n1 [Example 167, (1R,5R,6R)-3-(7-(8-chloronaphthalen-1-yl)-8-fluoro-2-(2-(2-methyl-1H-imidazol-1-yl)ethoxy)pyrido[4,3-d]pyrimidin-4-yl)-3,8-diazabicyclo[3.2.1]octan-6-ol]",16.1
12,"CCn1ccc2cccc(-c3ncc4c(N5C[C@H]6CC[C@@H](C5)N6)nc(OCC56CCCN5CCC6)nc4c3F)c21 [Example 427, 4-((1R,5S)-3,8-diazabicyclo[3.2.1]octan-3-yl)-7-(1-ethyl-1H-indol-7-yl)-8-fluoro-2-((hexahydro-1H-pyrrolizin-7a-yl)methoxy)pyrido[4,3-d]pyrimidine]",1.98
13,"O[C@@H]1C[C@@H]2CN(c3nc(OC[C@@]45CCCN4C[C@H](F)C5)nc4c(F)c(-c5cccc6cccc(Cl)c56)ncc34)C[C@H]1N2 [Example 395, (1R,5R,6R)-3-(7-(8-chloronaphthalen-1-yl)-8-fluoro-2-((2-fluorotetrahydro-1H-pyrrolizin-7a(5H)-yl)methoxy)pyrido[4,3-d]pyrimidin-4-yl)-3,8-diazabicyclo[3.2.1]octan-6-ol]",1.09
14,"Nc1nccn1CCOc1nc(N2CC3CCC(C2)N3)c2cnc(-c3cccc4cccc(Cl)c34)c(F)c2n1 [Example 178, 1-[2-[7-(8-chloro-1-naphthyl)-4-(3,8-diazabicyclo[3.2.1]octan-3-yl)-8-fluoro-pyrido[4,3-d]pyrimidin-2-yl]oxyethyl]imidazol-2-amine]",> 16.7
15,"O=C(OC[C@H]1CC[C@@]2(COc3nc(N4CC5CCC(C4)N5)c4cnc(-c5cccc6cccc(Cl)c56)c(F)c4n3)CCCN12)N1CCCC1 [Example 443, ((3R,7aR)-7a-(((4-(3,8-diazabicyclo[3.2.1]octan-3-yl)-7-(8-chloronaphthalen-1-yl)-8-fluoropyrido[4,3-d]pyrimidin-2-yl)oxy)methyl)hexahydro-1H-pyrrolizin-3-yl)methyl pyrrolidine-1-carboxylate]",0.16
16,"C[C@H]1C[C@@H]1c1c(Cl)cc(O)cc1-c1ncc2c(N3C[C@H]4CC[C@@H](C3)N4)nc(OC[C@@]34CCCN3C[C@H](F)C4)nc2c1F [Example 451, 3-(4-((1R,5S)-3,8-diazabicyclo[3.2.1]octan-3-yl)-8-fluoro-2-(((2R,7aS)-2-fluorotetrahydro-1H-pyrrolizin-7a(5H)-yl)methoxy)pyrido[4,3-d]pyrimidin-7-yl)-5-chloro-4-((1S,2S)-2-methylcyclopropyl)phenol]",0.0783
17,"CCc1c(F)ccc2cccc(-c3ncc4c(N5C[C@H]6CC[C@@H](C5)N6)nc(OCC56CCCN5CCC6)nc4c3F)c12 [Example 426, 4-((1R,5S)-3,8-diazabicyclo[3.2.1]octan-3-yl)-7-(8-ethyl-7-fluoronaphthalen-1-yl)-8-fluoro-2-((hexahydro-1H-pyrrolizin-7a-yl)methoxy)pyrido[4,3-d]pyrimidine]",0.228
18,"Oc1cc(-c2ncc3c(N4C[C@H]5CC[C@@H](C4)N5)nc(OCC45CCCN4CCC5)nc3c2F)c2ccccc2c1 [Example 109, 4-(4-((1R,5S)-3,8-diazabicyclo[3.2.1]octan-3-yl)-8-fluoro-2-((tetrahydro-1H-pyrrolizin-7a(5H)-yl)methoxy)pyrido[4,3-d]pyrimidin-7-yl)naphthalen-2-ol bis(2,2,2-trifluoroacetate)]",0.331
19,"C#Cc1cccc2cccc(-c3ncc4c(N5C[C@H]6CC[C@@H](C5)N6)nc(OC[C@@H]5CCCN5C)nc4c3F)c12 [Example 206, 4-((1R,5S)-3,8-diazabicyclo[3.2.1]octan-3-yl)-7-(8-ethynylnaphthalen-1-yl)-8-fluoro-2-(((S)-1-methylpyrrolidin-2-yl)methoxy)pyrido[4,3-d]pyrimidine]",0.9
20,"Nc1cccc(CCOc2nc(N3C[C@H]4CC[C@@H](C3)N4)c3cnc(-c4cc(O)cc5ccccc45)c(F)c3n2)n1 [Example 139, 4-(2-(2-(6-aminopyridin-2-yl)ethoxy)-4-((1R,5S)-3,8-diazabicyclo[3.2.1]octan-3-yl)-8-fluoropyrido[4,3-d]pyrimidin-7-yl)naphthalen-2-ol]",5.25
21,"O=C(CCl)N1CCC(Oc2nc(N3C[C@H]4CC[C@@H](C3)N4)c3cnc(-c4cccc5cccc(Cl)c45)c(F)c3n2)CC1 [Example 163, 1-(4-((4-((1R,5S)-3,8-diazabicyclo[3.2.1]octan-3-yl)-7-(8-chloronaphthalen-1-yl)-8-fluoropyrido[4,3-d]pyrimidin-2-yl)oxy)piperidin-1-yl)-2-chloroethan-1-one bis(2,2,2-trifluoroacetate)]",> 16.7
22,"Fc1c(-c2cccc3cccc(Cl)c23)ncc2c(N3CC4CCC(C3)N4)nc(OCC34CCCN3C[C@H](F)C4)nc12 (stereo partly drawn) [Example 226, 4-((1R,5S)-3,8-diazabicyclo[3.2.1]octan-3-yl)-7-(8-chloronaphthalen-1-yl)-8-fluoro-2-((2-fluorotetrahydro-1H-pyrrolizin-7a(5H)-yl)methoxy)pyrido[4,3-d]pyrimidine bis-hydrochloride]",6.75
23,"Fc1c(-c2cccc3cccc(-c4c[nH]nn4)c23)ncc2c(N3C[C@H]4CC[C@@H](C3)N4)nc(OCC34CCCN3CCC4)nc12 [Example 180, 7-(8-(1H-1,2,3-triazol-4-yl)naphthalen-1-yl)-4-((1R,5S)-3,8-diazabicyclo[3.2.1]octan-3-yl)-8-fluoro-2-((hexahydro-1H-pyrrolizin-7a-yl)methoxy)pyrido[4,3-d]pyrimidine]",> 16.7
24,"CCc1cccc2cccc(-c3ncc4c(N5C[C@H]6CC[C@@H](C5)N6)nc(OCC56CCCN5CCC6)nc4c3F)c12 [Example 187, 4-((1R,5S)-3,8-diazabicyclo[3.2.1]octan-3-yl)-7-(8-ethylnaphthalen-1-yl)-8-fluoro-2-((tetrahydro-1H-pyrrolizin-7a(5H)-yl)methoxy)pyrido[4,3-d]pyrimidine]",0.45
25,"NC(=O)Cc1cccc2cccc(-c3ncc4c(N5C[C@H]6CC[C@@H](C5)N6)nc(OCC56CCCN5CCC6)nc4c3F)c12 [Example 240, 2-(8-(4-((1R,5S)-3,8-diazabicyclo[3.2.1]octan-3-yl)-8-fluoro-2-((tetrahydro-1H-pyrrolizin-7a(5H)-yl)methoxy)pyrido[4,3-d]pyrimidin-7-yl)naphthalen-1-yl)acetamide]",> 16.7

# Source: patent US11453683B1, “KRas G12D inhibitors” (Mirati Therapeutics, Inc., priority 2019, dated 2022)
